Laboratory results published in paper PMC12280925, “Structure-based discovery of positive allosteric modulators of the A1 adenosine receptor” (Proceedings of the National Academy of Sciences of the …, 2025).
Numbering of substitutions follows the chain as printed. Like-named read-outs stand apart in the source and are kept apart here.

Legend:
[1] = biological target: T1, A1R allosteric site (A1R-FlpINCHO cells, wild type) (Homo sapiens, UniProt P30542); assay: Whole-cell [3H]DPCPX interaction binding with NECA, allosteric ternary complex model; conditions: for binding cooperativity with NECA (logα): orthosteric agonist NECA
T1 sequence (P30542 1-326): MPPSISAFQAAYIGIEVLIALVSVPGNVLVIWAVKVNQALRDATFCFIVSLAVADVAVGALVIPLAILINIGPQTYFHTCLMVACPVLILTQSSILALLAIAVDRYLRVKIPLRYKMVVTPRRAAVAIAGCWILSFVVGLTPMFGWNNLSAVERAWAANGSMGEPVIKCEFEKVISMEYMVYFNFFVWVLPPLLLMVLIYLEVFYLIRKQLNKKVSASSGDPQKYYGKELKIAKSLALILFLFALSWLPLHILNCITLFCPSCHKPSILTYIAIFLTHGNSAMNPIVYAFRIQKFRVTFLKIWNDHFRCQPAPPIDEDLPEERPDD
Description: Equilibrium binding interaction experiments were fitted to the following allosteric ternary complex model.[3] Y=BmaxA/A+KAKB/αAB+KB1+[I]/KI+[B]/KB+αII[B]/KIKB,
A cooperativity factor α > 1 describes positive cooperativity; a value 0 < α < 1 describes negative cooperativity, and a value of α = 1 describes neutral cooperativity.

[2] = biological target: T2, A1R (A1R-FlpInCHO cells) (Homo sapiens, UniProt P30542); assay: Inhibition of forskolin-stimulated cAMP accumulation: NECA potency ± compound and compound alone; format: cell-based; conditions: for allosteric agonism (functional response in the absence of NECA): 30 μM compound alone, 3 μM forskolin-stimulated cAMP accumulation; for effect on NECA potency (pEC50): 30 μM compound, inhibition of forskolin-stimulated cAMP accumulation
T2 sequence (P30542 1-326): T1 sequence (P30542 1-326)
Procedure: (§1) FlpInCHO cell lines and cortical neuron cells were seeded into transparent 96-well plates at 20,000 cells/well and incubated for 16 to 20 h in a humidified incubator at 37 °C in 5% CO2. […] Compounds were added at either a single concentration (10 or 30 μM) or a concentration range for full interaction studies (3 to 30 μM), and plates were incubated for 30 to 60 min at 37 °C in a humidified chamber. […] After 30 min incubation at 37 °C, the reaction was terminated by rapid removal of buffer and the addition of 50 μL/well cold ethanol. […] Agonist concentration–response curves were normalized to the response mediated by 3 µM forskolin […].
Response=Basal+Emax-Basal×A/EC50+A,

[3] = biological target: T2, A1R (A1R-FlpInCHO cells); assay: Whole-cell [3H]DPCPX competition binding: NECA affinity in absence or presence of compound; conditions: 30 μM compound; for effect on NECA affinity (pKI): [3H]DPCPX competition binding, A1R-FlpINCHO cells; for effect on [3H]DPCPX binding (1 nM): absence of orthosteric agonist
Procedure: [^3H]DPCPX (8-cyclopentyl-1,3-dipropylxanthine, [dipropyl-2,3-^3H(N)]) whole-cell binding assays were performed on FlpINCHO cells stably expressing either WT (nontagged or 3xHA-tagged) or mutant 3xHA-A1R. Cells were seeded into a transparent 96-well plate at 40,000 cells/well in DMEM containing 10% FBS. Following 8 h incubation in a humidified environment at 37 °C in 5% CO2, cells were washed and maintained in serum-free DMEM for approximately 18 h at 37 °C in 5% CO2. […] Assays were terminated by washing twice with 100 μL/well cold phosphate-buffered saline, followed by the addition of 100 μL OptiPhase Supermix™ scintillation cocktail and bound radioactivity measured using a MicroBeta^2 ™ plate counter (PerkinElmer).
[^3H]DPCPX competition binding curves were fitted to a one-site inhibitory mass action equation:[1] Y=Bottom+Top-Bottom/1+10^X-LogIC50,
The top and bottom represent the maximal and minimal binding in the presence of the competitive ligand, respectively. Equilibrium dissociation constant (KI) values were subsequently derived from inhibition binding experiments using the Cheng–Prusoff equation:[2] KI=IC50/1+A/KD.

[4] = biological target: T2, A1R (A1R-FlpInCHO cells); assay: NECA/allosteric ligand interaction in cAMP accumulation, operational model of allosterism; format: cell-based; conditions: for allosteric ligand efficacy (logτB): allosteric agonism in cAMP; for functional cooperativity with NECA (logαβ): cAMP
Procedure: as §1
[5] E=EmτAAKB+αβ[B]+τB[B]KA^n/AKB+KAKB+[B]KA+α[A][B]^n+τAAKB+αβ[B]+τB[B]KA^n
Orthosteric agonist and allosteric ligand affinity were constrained to values determined from radioligand binding.

[5] = test system: A1R-mediated rat atrial beat rate; assay: Isolated rat atria: NECA-mediated decrease in contractile rate; conditions: approximate, read-out: potency (EC50) for inhibition in rat atrial beat rate
Procedure: Isolated rat atrial experiments were performed as previously described ([53]). Briefly, 10 to 16 wk old male Sprague Dawley rats were anesthetized with xylazine/ketamine and the chest cavity of the rat was opened to fully expose the heart, which was rapidly removed and placed in Krebs–Henseleit solution. The heart was cut transversely below the right and left atria to remove the ventricles, and the remaining […] were trimmed carefully. Atria was then mounted in an organ bath at 37 °C, bubbled with 5% CO2/95% O2, and allowed to contract spontaneously. The rate of atrial contraction was measured using a force transducer connected to a PowerLab data acquisition system. […] All experiments involving animals were approved by the Monash Institute of Pharmaceutical Sciences Animal Ethics Committee under project number 20213.

[6] = biological target: T3, M2 receptor (M2R) (Homo sapiens, UniProt P08172); assay: cAMP accumulation in M2 receptor FlpINCHO cells (selectivity); format: cell-based; conditions: acetylcholine as agonist
T3 sequence (P08172 1-466): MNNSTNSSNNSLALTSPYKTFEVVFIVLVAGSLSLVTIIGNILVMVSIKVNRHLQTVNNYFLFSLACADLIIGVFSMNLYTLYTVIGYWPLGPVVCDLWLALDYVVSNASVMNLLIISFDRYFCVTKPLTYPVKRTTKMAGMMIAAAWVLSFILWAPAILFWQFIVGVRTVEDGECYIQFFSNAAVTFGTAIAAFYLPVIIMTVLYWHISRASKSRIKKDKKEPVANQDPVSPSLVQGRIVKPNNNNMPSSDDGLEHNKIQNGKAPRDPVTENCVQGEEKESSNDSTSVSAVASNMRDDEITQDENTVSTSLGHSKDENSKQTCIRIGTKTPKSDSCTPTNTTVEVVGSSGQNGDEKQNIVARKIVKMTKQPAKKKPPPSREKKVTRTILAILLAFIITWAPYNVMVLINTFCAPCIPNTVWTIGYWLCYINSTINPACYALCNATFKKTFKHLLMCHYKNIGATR

[7] = biological target: T4, A1R S246^6.47A mutant (Homo sapiens, UniProt P30542, S246A); assay: [3H]DPCPX interaction binding at mutant S246A-A1R-FlpINCHO
T4 construct: expressed in transfected cells; host or cells: FlpInCHO cells, stably transfected
T4 sequence (P30542 1-326 S246A): T1 sequence (P30542 1-326) with S246A

[8] = test system: nontransfected FlpINCHO cells; assay: cAMP accumulation in nontransfected FlpINCHO cells; format: cell-based, Chinese hamster; conditions: 10 µM compound
[9] = biological target: T5, A2AR (Homo sapiens, UniProt P29274); assay: cAMP accumulation in A2AR FlpINCHO cells (selectivity); format: cell-based
T5 construct: expressed in transfected cells; host or cells: FlpInCHO cells, stably transfected
T5 sequence (P29274 whole entry): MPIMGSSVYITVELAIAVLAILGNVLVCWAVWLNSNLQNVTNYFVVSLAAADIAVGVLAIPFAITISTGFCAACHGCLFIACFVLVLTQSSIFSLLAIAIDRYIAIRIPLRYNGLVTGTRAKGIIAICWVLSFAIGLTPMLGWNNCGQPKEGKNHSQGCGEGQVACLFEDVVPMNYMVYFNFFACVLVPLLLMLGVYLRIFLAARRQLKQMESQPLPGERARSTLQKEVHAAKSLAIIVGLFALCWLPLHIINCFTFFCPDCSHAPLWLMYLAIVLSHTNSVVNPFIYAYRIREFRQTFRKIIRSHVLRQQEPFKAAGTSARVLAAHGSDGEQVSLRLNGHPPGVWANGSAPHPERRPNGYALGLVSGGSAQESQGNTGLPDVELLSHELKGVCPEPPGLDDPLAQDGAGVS

[10] = biological target: T6, A3R (Homo sapiens, UniProt P0DMS8); assay: cAMP accumulation in A3R FlpINCHO cells (selectivity); format: cell-based
T6 construct: expressed in transfected cells; host or cells: FlpInCHO cells, stably transfected
T6 sequence (P0DMS8 1-318): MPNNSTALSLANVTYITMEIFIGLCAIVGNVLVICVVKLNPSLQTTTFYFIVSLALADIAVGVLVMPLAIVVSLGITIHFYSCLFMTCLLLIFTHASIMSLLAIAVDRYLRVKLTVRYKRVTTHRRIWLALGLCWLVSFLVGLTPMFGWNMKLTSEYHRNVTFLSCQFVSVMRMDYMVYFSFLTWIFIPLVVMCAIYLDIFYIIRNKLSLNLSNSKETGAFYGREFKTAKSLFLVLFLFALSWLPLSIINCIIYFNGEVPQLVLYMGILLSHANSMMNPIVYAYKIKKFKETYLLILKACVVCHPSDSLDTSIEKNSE

[11] = biological target: T7, A2BR (Homo sapiens, UniProt P29275); assay: cAMP accumulation in A2BR FlpINCHO cells (selectivity); format: cell-based
T7 construct: expressed in transfected cells; host or cells: FlpInCHO cells, stably transfected
T7 sequence (P29275 1-332): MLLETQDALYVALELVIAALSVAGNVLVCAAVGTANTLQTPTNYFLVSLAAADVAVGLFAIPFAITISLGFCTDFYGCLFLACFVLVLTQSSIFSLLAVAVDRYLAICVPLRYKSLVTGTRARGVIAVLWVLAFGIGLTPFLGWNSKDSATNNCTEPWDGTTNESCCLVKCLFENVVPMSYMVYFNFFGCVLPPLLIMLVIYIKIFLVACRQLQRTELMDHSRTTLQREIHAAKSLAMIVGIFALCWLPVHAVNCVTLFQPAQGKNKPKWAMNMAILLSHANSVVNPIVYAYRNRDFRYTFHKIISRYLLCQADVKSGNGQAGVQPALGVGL

[12] = biological target: T8, A1R G279^7.44A mutant (Homo sapiens, UniProt P30542, G279A); assay: [3H]DPCPX interaction binding at mutant G279A-A1R-FlpINCHO
T8 construct: expressed in transfected cells; host or cells: FlpInCHO cells, stably transfected
T8 sequence (P30542 1-326 G279A): T1 sequence (P30542 1-326) with G279A

[13] = allosteric ternary complex model

SMILES: Nc1nc(-c2cccc3ccccc23)cs1 [compound 12]
- Kb ([1]; allosteric ternary complex model, n = 4, read-out: allosteric ligand affinity (pKB) (converted)): 23.4 µM
- binding cooperativity with NECA (logα) [1, 13]: 0.99 ± 0.25
- positive cooperativity between PAM and NECA ([1]; approximate, from logα): ~10 fold
- Kd ([1]; approximate, from pKB, read-out: affinity for the A1R allosteric site): ~25 µM
- allosteric agonism (functional response in the absence of NECA) [2]: no significant effect
- effect on NECA potency (pEC50) ([2]; A1R-FlpINCHO cells): significantly enhanced
- effect on NECA affinity (pKI) [3]: significantly enhanced
- effect on [3H]DPCPX binding (1 nM) [3]: modest but significant decrease
- allosteric ligand efficacy (logτB) [4]: −0.65 ± 0.12
- functional cooperativity with NECA (logαβ) [4]: 0.68 ± 0.10

SMILES: CCNC(=O)[C@H]1O[C@@H](n2cnc3c(N)ncnc32)[C@H](O)[C@@H]1O [NECA, 5′-N-ethylcarboxamidoadenosine]
- EC50 [5]: ~0.13 µM

SMILES: Cc1ccc(C(=O)c2c(N)sc(C)c2C)cc1 [compound 20]
- allosteric agonism (functional response in the absence of NECA) [2]: no significant effect
- effect on NECA potency (pEC50) ([2]; A1R-FlpINCHO cells): significantly enhanced
- effect on NECA affinity (pKI) [3]: significantly enhanced
- effect on [3H]DPCPX binding (1 nM) [3]: modest but significant decrease

SMILES: CCCc1sc(N)nc1-c1ccc(C)cc1C [compound 2]
- effect on NECA potency (pEC50) ([2]; A1R-FlpINCHO cells): significantly enhanced
- effect on NECA affinity (pKI) [3]: significantly enhanced

SMILES: CCCc1sc(N)nc1-c1ccc(C)c2ccccc12 [compound 54]
- effect in FlpINCHO cells expressing the M2 receptor [6]: no significant effect
- effect of S246^6.47A on affinity or cooperativity [7]: did not significantly decrease
- Kb ([7]; […], Table S2): 5.13 µM
- binding cooperativity (logα) with NECA ([7]; […], Table S2): 1.10
- binding cooperativity (logα) with NECA ([1]; WT A1R, Table S2): 0.92
- Kb ([1]; allosteric ligand affinity (pKB), allosteric ternary complex model, n = 4): 7.08 µM
- binding cooperativity with NECA (logα) [1, 13]: 1.15 ± 0.10
- Kb ([1]; pKB, WT A1R, mean ± SEM (n), Table S2): 5.62 µM
- agonism (compound alone) ([2]; A1R-FlpINCHO cells): modest functional response
- effect in nontransfected FlpINCHO cells [8]: no significant effect
- effect on NECA potency ([9]; 10 µM compound, A2AR): no significant effect
- agonism (compound alone) ([9]; 30 μM, A2AR FlpINCHO cells): no appreciable activity
- effect on NECA potency ([10]; 10 µM compound, A3R): no significant effect
- agonism (compound alone) ([10]; 30 μM, A3R FlpINCHO cells): no appreciable activity
- allosteric ligand efficacy (logτB) [4]: −0.37 ± 0.10
- functional cooperativity with NECA (logαβ) [4]: 0.84 ± 015
- effect on NECA potency ([11]; 10 µM compound, A2BR): no significant effect
- agonism (compound alone) ([11]; 30 μM, A2BR FlpINCHO cells): no appreciable activity
- effect of G279^7.44A on affinity [12]: did not influence
- effect of G279^7.44A on allosteric cooperativity with the orthosteric agonist [12]: significantly decreased
- Kb ([12]; […], Table S2): 2.14 µM
- binding cooperativity (logα) with NECA ([12]; […], Table S2): -0.05

SMILES: Nc1ccc(Cl)cc1C(=O)c1ccc(F)cc1 [compound 22]
- effect on NECA affinity (pKI) [3]: significantly enhanced
